Measured values from ChEMBL document CHEMBL1201862, “PubChem BioAssay data set” (2004).
The source made the active and inactive calls. Peptide text beside a SMILES is read from it. * marks the point of attachment. Cbz = O=C(OCc1ccccc1)*

Legend:
[1] = AlphaScreen signal interference compounds, dose response, artefact control for ARNT-TACC3 interaction inhibitor project, biochemical, luminescence, cherry-pick (AID 651705); assay type: functional;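 also: AlphaScreen bead proximity signal that flags compounds interfering with the detection technology; potency reflects signal decrease which marks the compound as an assay artifact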
[2] = target: T1, Interleukin-8 (Homo sapiens, UniProt P10145); test: Dose Response confirmation of uHTS small molecule hits for cystic fibrosis induced NFkb Inhibitors in a PAF-induced IL8 counterscreen.; assay type: functional; conditions: read-out: IC50_Mean
T1 sequence (P10145 whole entry): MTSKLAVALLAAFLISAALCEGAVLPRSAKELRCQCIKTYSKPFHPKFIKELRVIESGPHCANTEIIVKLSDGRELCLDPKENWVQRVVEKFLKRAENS

[3] = target: T1, Interleukin-8; test: Dose Response confirmation of uHTS small molecule hits for cystic fibrosis induced NFkb Inhibitors in a TNFa-induced IL8 counterscreen.; assay type: functional; conditions: read-out: IC50_Mean
[4] = target: 72 kDa type IV collagenase (Homo sapiens, UniProt P08253); test: Dose Response validation of uHTS RPN11 inhibitor hits using a MMP-2 Fluorescence assay.; assay type: functional
Sequence of 72 kDa type IV collagenase (P08253 whole entry): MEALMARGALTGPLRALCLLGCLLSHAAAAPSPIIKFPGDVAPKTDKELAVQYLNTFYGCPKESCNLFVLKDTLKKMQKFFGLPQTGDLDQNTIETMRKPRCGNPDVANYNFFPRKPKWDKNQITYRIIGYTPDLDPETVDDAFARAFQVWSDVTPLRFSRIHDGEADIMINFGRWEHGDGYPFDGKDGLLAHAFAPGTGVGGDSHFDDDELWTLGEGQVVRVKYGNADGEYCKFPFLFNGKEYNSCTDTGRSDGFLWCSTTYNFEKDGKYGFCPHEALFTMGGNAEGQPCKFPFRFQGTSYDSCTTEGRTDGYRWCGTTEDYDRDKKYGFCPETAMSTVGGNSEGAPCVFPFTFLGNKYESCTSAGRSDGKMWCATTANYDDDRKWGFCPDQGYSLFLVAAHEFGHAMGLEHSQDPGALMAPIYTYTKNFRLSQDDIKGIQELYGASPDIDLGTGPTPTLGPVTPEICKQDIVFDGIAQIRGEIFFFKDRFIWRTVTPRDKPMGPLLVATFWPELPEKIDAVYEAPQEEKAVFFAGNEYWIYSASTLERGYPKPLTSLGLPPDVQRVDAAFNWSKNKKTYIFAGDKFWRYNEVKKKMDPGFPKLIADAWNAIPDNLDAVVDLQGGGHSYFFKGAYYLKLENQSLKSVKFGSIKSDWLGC

[5] = HeLa cell cytotoxicity, dose response, cytotoxicity control for MgcRacGAP inhibitor project (AID 624300); assay type: functional
[6] = target: T2, Rac GTPase-activating protein 1 (Homo sapiens, UniProt Q9H0H5); test: MgcRacGAP GTPase-activating activity inhibitors, confirmation, biochemical, ADP Hunter fluorescence, primary and confirmatory (AID 624330); assay type: functional
T2 sequence (Q9H0H5 whole entry): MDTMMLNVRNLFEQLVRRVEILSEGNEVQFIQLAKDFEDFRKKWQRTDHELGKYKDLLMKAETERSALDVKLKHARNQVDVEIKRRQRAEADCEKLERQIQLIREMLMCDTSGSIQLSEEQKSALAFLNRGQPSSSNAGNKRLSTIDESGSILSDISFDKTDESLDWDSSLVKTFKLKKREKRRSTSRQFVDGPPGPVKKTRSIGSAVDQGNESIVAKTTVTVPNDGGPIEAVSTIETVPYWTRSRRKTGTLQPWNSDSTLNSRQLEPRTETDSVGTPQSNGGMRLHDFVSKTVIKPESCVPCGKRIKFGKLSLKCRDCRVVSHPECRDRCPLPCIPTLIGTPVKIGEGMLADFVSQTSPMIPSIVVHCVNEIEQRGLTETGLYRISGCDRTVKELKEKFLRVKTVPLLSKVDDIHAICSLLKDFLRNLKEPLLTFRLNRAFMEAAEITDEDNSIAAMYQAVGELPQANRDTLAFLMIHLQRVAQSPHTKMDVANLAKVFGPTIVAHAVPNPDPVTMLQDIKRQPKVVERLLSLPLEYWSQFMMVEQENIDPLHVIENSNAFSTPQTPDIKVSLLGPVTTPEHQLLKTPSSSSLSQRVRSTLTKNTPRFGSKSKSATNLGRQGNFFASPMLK

[7] = target: Prothrombin (Bos taurus, UniProt P00735); test: thrombin inhibition, dose response, biochemical, fluorescence polarization, uHTS hits (AID 602369); assay type: functional
[8] = target: 26S proteasome non-ATPase regulatory subunit 14 (Homo sapiens, UniProt O00487); test: inhibition of proteasome subunit RPN11 – biochemical, fluorescence polarization, uHTS hits, confirmation (AID 602368); assay type: functional
Sequence of 26S proteasome non-ATPase regulatory subunit 14 (O00487 whole entry): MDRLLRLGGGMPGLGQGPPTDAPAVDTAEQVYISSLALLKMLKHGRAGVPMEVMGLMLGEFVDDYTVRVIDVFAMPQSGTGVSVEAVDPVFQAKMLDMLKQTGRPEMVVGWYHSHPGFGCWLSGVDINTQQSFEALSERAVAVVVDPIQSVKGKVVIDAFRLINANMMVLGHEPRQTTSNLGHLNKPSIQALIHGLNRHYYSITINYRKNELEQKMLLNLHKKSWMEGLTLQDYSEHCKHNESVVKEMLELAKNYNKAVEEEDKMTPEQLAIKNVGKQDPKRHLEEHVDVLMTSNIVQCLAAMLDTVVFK

[9] = target: DNA dC->dU-editing enzyme APOBEC-3A (Homo sapiens, UniProt P31941); test: SAR analysis of small molecule inhibitors of APOBEC3A DNA Deaminase via a fluorescence-based single-stranded DNA deaminase assay.; assay type: functional; conditions: read-out: IC50_Mean
Sequence of DNA dC->dU-editing enzyme APOBEC-3A (P31941 whole entry): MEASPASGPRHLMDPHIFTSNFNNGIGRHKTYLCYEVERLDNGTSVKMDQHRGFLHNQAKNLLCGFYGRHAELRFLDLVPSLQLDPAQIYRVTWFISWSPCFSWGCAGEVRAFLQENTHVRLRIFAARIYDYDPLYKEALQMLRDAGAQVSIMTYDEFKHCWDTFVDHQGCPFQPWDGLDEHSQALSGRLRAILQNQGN

[10] = target: DNA dC->dU-editing enzyme APOBEC-3G (Homo sapiens, UniProt Q9HC16); test: APOBEC3G deaminase inhibitors, SAR follow-up, biochemical, fluorescence, single-stranded DNA substrate (AID 602136); assay type: functional; conditions: read-out: IC50_Mean
Sequence of DNA dC->dU-editing enzyme APOBEC-3G (Q9HC16 whole entry): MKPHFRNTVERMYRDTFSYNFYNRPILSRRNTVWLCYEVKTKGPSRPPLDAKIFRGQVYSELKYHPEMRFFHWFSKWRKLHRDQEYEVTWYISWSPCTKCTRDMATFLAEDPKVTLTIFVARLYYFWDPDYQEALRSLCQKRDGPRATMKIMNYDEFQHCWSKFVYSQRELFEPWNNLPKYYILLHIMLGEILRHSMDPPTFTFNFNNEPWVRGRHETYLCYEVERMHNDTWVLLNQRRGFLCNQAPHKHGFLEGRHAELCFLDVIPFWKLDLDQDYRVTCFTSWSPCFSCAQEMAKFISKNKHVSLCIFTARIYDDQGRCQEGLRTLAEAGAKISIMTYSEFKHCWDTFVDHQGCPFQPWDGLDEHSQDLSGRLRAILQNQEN

[11] = A Cell Based Secondary Assay to Explore Cytotoxicity in THP-1 Cells of Compounds that Modulate Mycobacterium tuberculosis in Media Containing Glycerol versus Media without Glycerol (2).; assay type: functional
[12] = Vero cell cytotoxicity, cytotoxicity control for M. tuberculosis inhibitor project, purified and synthesized samples, set 3 (AID 504684); assay type: functional
[13] = inhibitors of intracellular T. cruzi replication, confirmation, NIH3T3 host cells, beta-gal luminescence (AID 2044); assay type: functional, cell-based;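 also: intracellular parasites grown in NIH/3T3 mouse fibroblasts as host cells; luminescent beta-galactosidase reporter signal from transgenic T. cruzi replicating inside host cells; inhibitors lower the luminescence signal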
[14] = cytotoxicity toward NIH3T3 fibroblasts, dose response, counter-screen, cell-based, ATP luminescence, mouse fibroblasts (AID 2010); assay type: functional;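 also: cells exposed to compound for about 90 hours before reading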
[15] = target: Aryl hydrocarbon receptor (Homo sapiens, UniProt P35869); conditions: Potency;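 also: confirmatory quantitative high-throughput screen measuring activation of the AhR signaling pathway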
[16] = cells
[17] = target: Heat shock protein HSP 90-alpha (Homo sapiens, UniProt P07900); assay type: functional, organism-based
[18] = target: Benomyl/methotrexate resistance protein (Candida albicans, UniProt P28873); test: CaMdr1 efflux pump inhibitor potency, dose response, singleplex, Cherry Pick1 hits (AID 588608); assay type: functional
[19] = target: ATP-dependent molecular chaperone HSP82 (Candida albicans (strain WO-1) (Yeast), UniProt C4YTQ8); test: loss of DOC-induced GRE-beta-galactosidase reporter signal, dose response, Hsp90 inhibitor project, S. cerevisiae, luminescence (AID 2400); assay type: functional, cell-based;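 also: beta-galactosidase luminescence from glucocorticoid response element reporter as proxy for Hsp90 function; inhibitor potency where signal loss means Hsp90 inhibition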
[20] = target: T3, Serine/threonine-protein phosphatase (Candida dubliniensis (strain CD36 / CBS 7987 / NCPF 3949 / NRRLY-17841) (Yeast), UniProt B9W6M3); test: calcineurin pathway inhibitors in yeast reporter, dose response, S. cerevisiae, CDRE-lacZ, luminescence, secondary (AID 2388); assay type: functional, cell-based;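 also: yeast reporter cells carrying a calcineurin-responsive lacZ construct stimulated with calcium chloride; luminescent beta-galactosidase reporter signal in whole cells rather than isolated phosphatase activity; potency for inhibition where a drop in reporter signal means calcineurin blockade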
T3 sequence (B9W6M3 whole entry): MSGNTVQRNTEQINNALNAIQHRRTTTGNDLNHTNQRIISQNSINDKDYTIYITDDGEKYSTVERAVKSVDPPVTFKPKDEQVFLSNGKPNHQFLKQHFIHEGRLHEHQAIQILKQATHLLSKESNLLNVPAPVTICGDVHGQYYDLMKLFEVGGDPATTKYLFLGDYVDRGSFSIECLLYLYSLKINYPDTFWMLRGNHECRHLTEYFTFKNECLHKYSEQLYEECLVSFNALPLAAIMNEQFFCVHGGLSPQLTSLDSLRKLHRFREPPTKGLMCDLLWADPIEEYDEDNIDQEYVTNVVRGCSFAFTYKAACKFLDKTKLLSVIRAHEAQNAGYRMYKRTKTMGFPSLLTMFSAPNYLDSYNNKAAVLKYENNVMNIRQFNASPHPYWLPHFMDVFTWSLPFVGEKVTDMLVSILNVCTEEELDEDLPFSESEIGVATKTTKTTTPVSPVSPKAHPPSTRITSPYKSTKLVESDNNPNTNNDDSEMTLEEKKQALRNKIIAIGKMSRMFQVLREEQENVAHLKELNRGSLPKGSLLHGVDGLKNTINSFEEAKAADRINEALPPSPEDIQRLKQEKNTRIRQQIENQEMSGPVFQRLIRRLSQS

[21] = C. albicans growth with fluconazole, confirmation, fluorescence, retest (AID 2467); assay type: functional, cell-based
[22] = NIH-3T3 fibroblast cytotoxicity, dose response, cytotoxicity control, cell-based, fluorescence, Alamar Blue, secondary assay (AID 2327); assay type: functional;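 also: NIH-3T3 mouse fibroblasts cultured with fluconazole at 8 µg/mL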
[23] = nonselective inhibitors of cellular cAMP signaling, dose response, counter-screen for MC4R biased antagonist project, cell-based, TR-FRET cAMP detection (AID 602305); assay type: functional;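 also: U2OS cells stimulated with forskolin near its EC80 as the cAMP inducer; potency is for inhibition of forskolin-stimulated cAMP signaling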
[24] = target: Melanocortin receptor 4 (Homo sapiens, UniProt P32245); test: MC4R antagonist potency on cAMP, dose response, cell-based, TR-FRET, biased antagonists (AID 602298); assay type: functional;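 also: antagonist potency against agonist-stimulated cAMP production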
Sequence of Melanocortin receptor 4 (P32245 whole entry, the tested form may be a part): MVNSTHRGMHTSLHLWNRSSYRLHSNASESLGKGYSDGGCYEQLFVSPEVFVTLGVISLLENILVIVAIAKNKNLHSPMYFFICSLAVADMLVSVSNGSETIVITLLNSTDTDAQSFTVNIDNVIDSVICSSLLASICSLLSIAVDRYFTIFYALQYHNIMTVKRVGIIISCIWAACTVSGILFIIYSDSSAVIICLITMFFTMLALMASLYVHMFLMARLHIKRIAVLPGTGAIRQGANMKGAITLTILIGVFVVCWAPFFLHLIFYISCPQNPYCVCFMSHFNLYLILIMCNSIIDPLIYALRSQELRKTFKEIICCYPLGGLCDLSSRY

[25] = target: T4, Fatty acid synthase (Homo sapiens, UniProt P49327); test: FAS thioesterase domain inhibitors, dose response, biochemical, endpoint fluorescence intensity, uHTS hits (AID 624327); assay type: functional;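 also: fluorescence from hydrolysis of an O-methyl fluorescein acyl ester substrate by the enzyme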
T4 sequence (P49327 whole entry, the tested form may be a part): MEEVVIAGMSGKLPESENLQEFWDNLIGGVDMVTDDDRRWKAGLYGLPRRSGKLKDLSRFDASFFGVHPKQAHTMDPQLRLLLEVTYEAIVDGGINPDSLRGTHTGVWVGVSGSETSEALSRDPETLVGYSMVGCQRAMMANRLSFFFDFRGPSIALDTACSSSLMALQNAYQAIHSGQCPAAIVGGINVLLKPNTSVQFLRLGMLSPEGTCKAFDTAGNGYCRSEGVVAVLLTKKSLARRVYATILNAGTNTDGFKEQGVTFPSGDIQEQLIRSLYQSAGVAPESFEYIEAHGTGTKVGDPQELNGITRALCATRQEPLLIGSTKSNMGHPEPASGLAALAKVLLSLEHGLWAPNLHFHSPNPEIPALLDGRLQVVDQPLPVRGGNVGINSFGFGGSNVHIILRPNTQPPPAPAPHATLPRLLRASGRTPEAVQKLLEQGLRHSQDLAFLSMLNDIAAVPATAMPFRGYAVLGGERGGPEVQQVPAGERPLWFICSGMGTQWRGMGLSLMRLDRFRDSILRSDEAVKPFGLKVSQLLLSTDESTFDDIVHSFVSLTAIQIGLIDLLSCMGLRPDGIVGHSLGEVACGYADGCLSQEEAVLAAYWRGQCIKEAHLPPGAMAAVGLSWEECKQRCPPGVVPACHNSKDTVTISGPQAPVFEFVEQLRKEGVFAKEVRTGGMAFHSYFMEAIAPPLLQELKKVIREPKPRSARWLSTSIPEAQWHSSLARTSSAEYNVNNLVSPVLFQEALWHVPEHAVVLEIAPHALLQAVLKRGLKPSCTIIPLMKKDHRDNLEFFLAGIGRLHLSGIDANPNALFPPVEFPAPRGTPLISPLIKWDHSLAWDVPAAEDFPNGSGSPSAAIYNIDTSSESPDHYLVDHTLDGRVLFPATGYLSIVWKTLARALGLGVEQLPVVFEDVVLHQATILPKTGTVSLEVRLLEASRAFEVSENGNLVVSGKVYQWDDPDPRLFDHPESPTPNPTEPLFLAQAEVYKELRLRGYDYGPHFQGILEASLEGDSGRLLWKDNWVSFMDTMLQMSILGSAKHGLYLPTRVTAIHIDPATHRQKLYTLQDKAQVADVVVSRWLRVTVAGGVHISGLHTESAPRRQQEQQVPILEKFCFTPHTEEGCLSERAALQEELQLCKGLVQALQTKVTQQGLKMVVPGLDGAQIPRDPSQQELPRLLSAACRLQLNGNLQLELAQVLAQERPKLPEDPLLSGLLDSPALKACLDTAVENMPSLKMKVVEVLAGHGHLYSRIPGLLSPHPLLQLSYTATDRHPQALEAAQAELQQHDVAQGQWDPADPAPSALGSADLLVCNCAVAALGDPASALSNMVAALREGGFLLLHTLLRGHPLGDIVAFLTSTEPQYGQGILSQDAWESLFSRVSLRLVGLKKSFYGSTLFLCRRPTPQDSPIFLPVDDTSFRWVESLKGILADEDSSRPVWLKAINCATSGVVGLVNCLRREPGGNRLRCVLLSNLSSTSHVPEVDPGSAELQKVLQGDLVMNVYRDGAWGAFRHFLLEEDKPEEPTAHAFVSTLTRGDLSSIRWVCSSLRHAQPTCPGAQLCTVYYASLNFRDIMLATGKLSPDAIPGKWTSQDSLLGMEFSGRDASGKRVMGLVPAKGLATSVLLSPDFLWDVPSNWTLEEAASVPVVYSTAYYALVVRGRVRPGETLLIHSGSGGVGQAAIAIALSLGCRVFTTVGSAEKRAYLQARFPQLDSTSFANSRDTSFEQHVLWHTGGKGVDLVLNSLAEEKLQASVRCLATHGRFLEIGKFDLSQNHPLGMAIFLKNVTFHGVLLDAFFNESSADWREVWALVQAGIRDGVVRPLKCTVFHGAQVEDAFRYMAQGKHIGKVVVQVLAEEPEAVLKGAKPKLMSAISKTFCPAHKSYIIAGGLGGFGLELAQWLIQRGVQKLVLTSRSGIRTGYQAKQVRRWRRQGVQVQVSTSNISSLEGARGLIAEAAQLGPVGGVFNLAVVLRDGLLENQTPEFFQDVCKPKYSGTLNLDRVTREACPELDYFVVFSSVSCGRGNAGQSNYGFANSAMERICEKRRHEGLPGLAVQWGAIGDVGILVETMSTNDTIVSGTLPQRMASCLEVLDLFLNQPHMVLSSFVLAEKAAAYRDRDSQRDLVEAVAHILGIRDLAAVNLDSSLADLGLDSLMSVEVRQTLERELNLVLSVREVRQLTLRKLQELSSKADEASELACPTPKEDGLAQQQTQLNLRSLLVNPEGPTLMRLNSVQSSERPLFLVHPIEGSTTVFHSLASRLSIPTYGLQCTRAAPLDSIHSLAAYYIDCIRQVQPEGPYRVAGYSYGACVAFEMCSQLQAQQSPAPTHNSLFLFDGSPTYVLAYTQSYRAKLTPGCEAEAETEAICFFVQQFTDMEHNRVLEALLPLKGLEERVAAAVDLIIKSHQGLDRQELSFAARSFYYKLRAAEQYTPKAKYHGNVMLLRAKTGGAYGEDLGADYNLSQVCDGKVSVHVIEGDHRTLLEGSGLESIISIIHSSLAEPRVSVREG

[26] = target: T4, Fatty acid synthase; test: FAS thioesterase domain inhibitors, dose response, biochemical, kinetic fluorescence intensity (AID 624326); assay type: functional;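 also: rate of fluorescence rise from hydrolysis of a fluorogenic O-methyl fluorescein ester substrate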
[27] = target: Dual specificity tyrosine-phosphorylation-regulated kinase 1A (Rattus norvegicus, UniProt Q63470); assay type: biochemical, Homo sapiens
[28] = inhibition of ADP-Glo detection reagents, dose response, artefact control for CDK5 inhibitor project, biochemical, luminescence, cherry-picked samples, set 2 (AID 504546); assay type: functional
[29] = tested on: BJ; test: cytotoxicity toward BJ-TERT fibroblasts, dose response, cell-based, RAS-independent, luminescence (AID 1933); assay type: functional; conditions: Homo sapiens
[30] = cytotoxicity toward DRD oncogenic fibroblasts, dose response, cell-based, non-viral oncogenic, luminescence (AID 1934); assay type: functional; conditions: Homo sapiens
[31] = target: Cyclin-dependent kinase 5/CDK5 activator 1 (Homo sapiens, UniProt Q00535); test: CDK5/p35 kinase inhibitors, dose response, biochemical, cherry-picked samples, set 2 (AID 504545)
[32] = tested on: BJ; test: cytotoxicity toward BJ-TERT-LT-ST fibroblasts, dose response, cell-based, RAS-independent, luminescence (AID 1935); assay type: functional; conditions: Homo sapiens;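 also: BJ fibroblasts immortalized with TERT plus LT and ST oncogenes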
[33] = tested on: BJ; test: cytotoxicity toward Ras-transformed BJeLR fibroblasts, dose response, cell-based, alamar blue fluorescence, cherrypicked samples (AID 2631); assay type: functional; conditions: Homo sapiens;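 also: confirmatory dose-response assay in RAS-dependent BJ fibroblasts engineered with TERT, LT and ST, with cytotoxicity read by fluorescence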
[34] = Luminescence Cell-Based Dose Confirmation HTS to Identify Inhibitors of Platelet Dense Granule Release. [Related pubchem assays: 1663 (Primary HTS), 1678 (Summary of Project)]; assay type: functional
[35] = target: Luciferin 4-monooxygenase (Photinus pyralis, UniProt P08659); test: firefly luciferase enzyme inhibitors, dose response, biochemical, luminescence (AID 1891)
Sequence of Luciferin 4-monooxygenase (P08659 whole entry): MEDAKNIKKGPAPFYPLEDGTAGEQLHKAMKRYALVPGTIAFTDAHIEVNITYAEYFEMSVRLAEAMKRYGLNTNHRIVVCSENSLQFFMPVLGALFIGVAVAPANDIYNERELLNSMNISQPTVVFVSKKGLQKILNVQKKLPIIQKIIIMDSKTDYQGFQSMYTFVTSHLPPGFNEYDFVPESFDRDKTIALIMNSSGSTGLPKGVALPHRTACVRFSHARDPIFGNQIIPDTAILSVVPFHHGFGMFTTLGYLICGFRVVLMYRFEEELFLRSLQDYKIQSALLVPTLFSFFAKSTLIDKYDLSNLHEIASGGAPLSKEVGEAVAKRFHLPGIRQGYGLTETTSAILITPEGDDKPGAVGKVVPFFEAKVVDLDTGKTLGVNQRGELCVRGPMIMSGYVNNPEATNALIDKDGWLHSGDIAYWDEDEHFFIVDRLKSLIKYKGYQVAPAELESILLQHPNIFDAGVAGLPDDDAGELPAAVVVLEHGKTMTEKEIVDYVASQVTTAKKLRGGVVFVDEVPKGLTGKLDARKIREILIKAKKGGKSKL

[36] = tested on: BJ; test: cells; assay type: functional, cell-based; conditions: Homo sapiens
[37] = Luminescence Cell-Based Dose Response HTS to Identify Activators of Luciferase Translation or Activity in H4 […] Cells. [Related pubchem assays: 1829 (Project Summary), 1814 (Primary HTS)]; assay type: functional
[38] = tested on: H4; test: Luminescence Cell-Based Dose Response HTS to Identify Activators of 5'UTR Stem-Loop Driven Prion Protein mRNA Translation in H4 Neuroglioblastoma Cells. [Related pubchem assays: 1829 (Project Summary), 1814 (Primary HTS)]; assay type: functional; conditions: Homo sapiens
[39] = Luminescence Cell-Based Dose Confirmation HTS to Identify Activators of 5'UTR Stem-Loop Driven Alpha-Synuclein mRNA Translation in H4 Neuroglioblastoma Cells. [Related pubchem assays: 1829 (Project Summary), 1814 (Primary HTS)]; assay type: functional

O=C(COc1ccccc1)Nc1nnc(-c2ccccc2)o1
AC50 [1]: 93.8 µM (active)

CN1CCC(OC(=O)c2cc3cc(Cl)cc(Cl)c3oc2=O)CC1
IC50 [2]: 3.45 µM (active)
IC50 [3]: 8.62 µM (active)

CCc1ccc(O)c(/N=C/c2cccc(C)c2O)c1
IC50 [4]: > 100 µM (inactive)
CC50 [5]: 100 µM (active)
IC50 [6]: 45.5 µM (active)
IC50 [7]: 11.8 µM (active)
IC50 [8]: 29.4 µM (active)

c1cnc2nc(SCc3cn4ccccc4n3)[nH]c2c1
IC50 [9]: > 99 µM (inactive)
IC50 [10]: > 99 µM (inactive)

CCOC(=O)CNC(=O)[C@H](Cc1ccccc1)NC(=O)OCc1ccccc1 (Cbz-Phe-Gly-OEt)
CC50 [11]: 58.5 µM (active)
CC50 [12]: 32.1 µM (active)

CCCC1COC(Cn2cncn2)(c2ccc(Cl)cc2Cl)O1 (configuration not stated) [PROPICONAZOLE]
EC50 [13]: < 0.1 µM (active)
EC50 [14]: > 60 µM (not active)
AC50 [15]: 70.8 µM (inconclusive)
EC50 [16]: 0.041 µM (active)
AC50 [17]: < 0.195 µM (active)

Cn1cc(C(c2ccccn2)c2cn(C)c3ccccc23)c2ccccc21
EC50 [18]: 7.76 µM (active)
EC50 [19]: > 150 µM (inactive)
EC50 [20]: > 180 µM (inactive)
EC50 [21]: 0.157 µM (active)
EC50 [22]: 55.6 µM (active)

COc1ccc(NC(=O)Nc2cccc3c2O[C@H](CN(C)C(=O)Nc2ccc(C(F)(F)F)cc2)[C@@H](C)CN([C@H](C)CO)C3=O)cc1
IC50 [23]: > 64.6 µM (inactive)
IC50 [24]: 23.1 µM (inactive)
IC50 [25]: 11.6 µM (active)
IC50 [26]: 7.98 µM (active)

O=C(COC(=O)CCN1C(=O)c2cccc([N+](=O)[O-])c2C1=O)NCc1ccccc1
IC50 [23]: > 64.6 µM (inactive)
IC50 [24]: > 64.6 µM (inactive)

Cn1c(SCC(=O)c2ccccc2)nnc1-c1sc2ccccc2c1Cl
IC50 [9]: > 99 µM (inactive)
IC50 [10]: > 99 µM (inactive)

O=C(c1ccc2c3n(nc2c1)-c1ccccc1CO3)N1CCOCC1
AC50 [27]: 12.6 µM (active)
AC50 [28]: 17.7 µM (active)
EC50 [29]: 4.57 µM (inconclusive)
EC50 [30]: 5.29 µM (active)
AC50 [31]: 12.3 µM (active)
EC50 [32]: 17 µM (active)
EC50 [33]: > 133 µM (inactive)
EC50 [34]: 10.8 µM (active)
EC50 [35]: 1.55 µM (active)
EC50 [36]: 3.76 µM (active)

Cc1c(N=Nc2ccc(N(C)C)cc2)c(=O)n(-c2ccccc2)n1C
EC50 [37]: 6.8 µM (active)
IC50 [4]: > 100 µM (inactive)
EC50 [38]: 34.5 µM (active)
IC50 [6]: 56.9 µM (active)
IC50 [7]: 42.8 µM (active)
IC50 [8]: 73.1 µM (active)
EC50 [39]: 11.1 µM (active)
